Laboratory results reported in patent US3937838A, “Orally active bronchospasmolytic compounds and their preparation” (priority 1966, dated 1976).
Read-outs that look alike come from different tables or passages of the source.

Legend:
[1] = test system: isolated guinea pig trachea; assay: Bronchospasmolytic effect in vitro, isolated guinea pig trachea (Example 7a); conditions: Table 1, six experiments
Description: The trachea from a guinea pig was dissected out and spirally out. It was mounted in a water-jacketed bath (37°C.) in Kreb's solution and aerated with oxygen (95%) and carbon dioxide (5%). Pilocarpine (1 μg/ml) was added. The load was about 2 g and the relaxation was recorded by means of a Grass force displacement transducer and a Grass polygraph model 5. The compound KWD2109 was tested on six preparations in which epinephrine was used as reference.

[2] = test system: bronchospasm induced by histamine aerosol; assay: Protecting effect against histamine aerosol in intact guinea pigs (Example 7c); assay type: in vivo, guinea pig; conditions: for ED50: Cavia porcellus, m ± s.e., read-out: ED50 (protecting 50 per cent of the animals for more than 4 minutes)
Description: The compounds KWD2109 and KWD2025 have been compared in preventing bronchospasm induced by histamine aerosol in guinea pigs.
The drug was injected intraperitoneally 15 minutes (Table 2) or administered orally 30 minutes (Table 3) before histamine treatment. The dose of the drugs protecting 50 per cent of the animals for more than 4 minutes is denoted "ED50". In untreated animals only 1-2 percent will withstand the histamine aerosol for more than 4 minutes.
To study the duration of the effect, 2 mg/kg was administered orally to intact guinea pigs at different time intervals before the histamine treatment. Two series each including eleven groups of six animals was studied. The groups were tested in histamine aerosol 10, 20, 30, 40, 50, 60, 120, 180, 240, 300 and 360 minutes after the administration of the compound. The per cent of animals in each group protected more than 4 minutes and more than 10 minutes was determined.

[3] = test system: isolated guinea pig heart; assay: Effect on isolated guinea pig heart, Langendorff (Example 7d)
Description: The isolated guinea pig heart was perfused according to Langendorff. The method used is described by Anden et al. (Acta. Pharmacol. et Toxicol. 21, 247, 1964). Contractions in the heart were recorded by means of a force displacement transducer and aa Grass polygraph Model 7. Epinephrine was used as reference. KWD2109 and KWD2025 were tested on the same preparation. The comparisons of effects were based on dose for 50 percent increase in chronotropic effect and 10 percent increase in inotropic effect.

[4] = test system: isolated guinea pig auricle; assay: Dual bath preparation, effect on left auricle (Example 8a)
Description: The left auricle was dissected out and mounted together with spirally-cut trachea from the same animal in a 100 ml bath in Kreb's solution (37°C.) well aereated with a mixture of oxygen (95%) and carbon dioxide (5%). The auricle was electrically stimulated with square wave pulses from a Techtronic Stimulator (voltage 2-4; duration: 10 m sec; frequency 1 per second). This is, in general, the same procedure described above in Example 5c.
Using the dual bath preparation, tests were made of the effect on the trachea and auricle of KWD2025 (of the present invention) and of the known drugs KWD2109 and epinephrine. The drug to be tested was added to the bath in the predetermined amount and allowed to act upon the organs for 10 minutes.

heart rate = assay: Tests on anesthetized cat, heart rate with bronchospasmolytic effect (Example 8b); assay type: in vivo
Source text: The relative bronchospasmolytic and cardiovascular effects of compounds can be tested in the method of Konzett & Rossler (see Example 5b above). As has already been described, the test animal is force-ventilated and the effect of various compounds in controlling histamine-induced bronchoconstriction, as reflected by overflow of the forced ventilation in excess of lung capacity, is used as a measure of the bronchospasmolytic effect. Concurrently in the same animal, changes in heart rate and arterial mean pressure can be simultaneously recorded.
In carrying out this procedure, bronchoconstriction in the test animal is induced by injection of histamine. The ability of KWD2025 and KWD2109 to control the histamine-inducred bronchoconstriction is measured by injecting the test compound 3 minutes before injection of […], and before injection of histamine, the effect of the test compound on the heart rate is recorded.

Oc1ccc(C(O)CNC2CCC2)cc1O (stereo not drawn) [KWD2109, 1-(3',4'-dihydroxyphenyl)-2-(cyclobutylamino)-ethanol]
bronchospasmolytic effect x epinephrine [1]: 8.6 ± 1.7 times | ED50 ([2]; ip, 0.25 h, i.p., 15 minutes before histamine-aerosol): 0.17 ± 0.02 mg/kg | ED50 ([2]; po, 0.5 h, peroral, 30 minutes before histamine-aerosol): 0.55 ± 0.14 mg/kg | protecting activity relative to KWD2025 ([2]; intraperitoneal): 3.5 times | protecting activity relative to KWD2025 ([2]; oral): 3.1 times | bronchospasmolytic activity relative to KWD2025 after intraperitoneal and oral administration ([2]; summary b256): about 3 times | therapeutic index, bronchospasmolytic effect over effect on the heart (inotropic) ([3]; KWD2025 given index 1.0): 0.083 | effect on force x epinephrine ([3]; dose for 10 percent increase in inotropic effect, Table 5): 5.5 ± 3.2 | effect on heart rate x epinephrine ([3]; dose for 50 percent increase in chronotropic effect, Table 4): 11.8 ± 6.5 | effect on auricle relative to epinephrine at doses with same effect on trachea ([4]; equi-effective doses on trachea): of the same order as that of epinephrine | effect on force of contraction in auricle in concentrations relaxing the trachea ([4]; same bath): increased the force of contraction in the auricle in concentrations where it relaxed the trachea | effect on heart rate at equal bronchospasmolytically effective doses (heart rate): more pronounced effect on the heart rate than did KWD2025
